Key:
Assay in all cases: SILAC proteomics / in-gel fluorescence, competition of probe 13-t labeling by 3a
[1] = target: proteins of HEK293T cells transiently overexpressing caspase-6 (Homo sapiens, UniProt O43143); details: Comp; protein DHX15 O43143
[2] = target: proteins of HEK293T cells transiently overexpressing caspase-6 (Homo sapiens, UniProt P06733); details: Comp; protein ENO1 P06733
[3] = target: proteins of HEK293T cells transiently overexpressing caspase-6 (Homo sapiens, UniProt P12268)
[4] = target: proteins of HEK293T cells transiently overexpressing caspase-6 (Homo sapiens, UniProt P31689)
[5] = target: proteins of HEK293T cells transiently overexpressing caspase-6 (Homo sapiens, UniProt P34897); details: Comp; protein SHMT2 P34897
[6] = target: proteins of HEK293T cells transiently overexpressing caspase-6 (Homo sapiens, UniProt P35606); details: Comp; protein COPB2 P35606
[7] = target: proteins of HEK293T cells transiently overexpressing caspase-6 (Homo sapiens, UniProt P40939); details: Comp; protein HADHA P40939
[8] = target: proteins of HEK293T cells transiently overexpressing caspase-6 (Homo sapiens, UniProt P57088); details: Comp; protein TMEM33 P57088
[9] = target: proteins of HEK293T cells transiently overexpressing caspase-6 (Homo sapiens, UniProt P60900); details: Comp; protein PSMA6 P60900
[10] = target: proteins of HEK293T cells transiently overexpressing caspase-6 (Homo sapiens, UniProt P61247); details: Comp; protein RPS3A P61247
[11] = target: proteins of HEK293T cells transiently overexpressing caspase-6 (Homo sapiens, UniProt P62701); details: Comp; protein RPS4X P62701
[12] = target: proteins of HEK293T cells transiently overexpressing caspase-6 (Homo sapiens, UniProt P62753); details: Comp; protein RPS6 P62753
[13] = target: proteins of HEK293T cells transiently overexpressing caspase-6 (Homo sapiens, UniProt P63244); details: Comp; protein GNB2L1 P63244
[14] = target: proteins of HEK293T cells transiently overexpressing caspase-6 (Homo sapiens, UniProt Q00839); details: Comp; protein HNRNPU Q00839
[15] = target: proteins of HEK293T cells transiently overexpressing caspase-6 (Homo sapiens, UniProt Q9BZZ5); details: Comp; protein API5 Q9BZZ5
[16] = target: T1, proteins of HEK293T cells transiently overexpressing caspase-6 (Homo sapiens, UniProt Q9UQ80); details: Comp; protein PA2G4 Q9UQ80
T1 sequence (Q9UQ80 1-394): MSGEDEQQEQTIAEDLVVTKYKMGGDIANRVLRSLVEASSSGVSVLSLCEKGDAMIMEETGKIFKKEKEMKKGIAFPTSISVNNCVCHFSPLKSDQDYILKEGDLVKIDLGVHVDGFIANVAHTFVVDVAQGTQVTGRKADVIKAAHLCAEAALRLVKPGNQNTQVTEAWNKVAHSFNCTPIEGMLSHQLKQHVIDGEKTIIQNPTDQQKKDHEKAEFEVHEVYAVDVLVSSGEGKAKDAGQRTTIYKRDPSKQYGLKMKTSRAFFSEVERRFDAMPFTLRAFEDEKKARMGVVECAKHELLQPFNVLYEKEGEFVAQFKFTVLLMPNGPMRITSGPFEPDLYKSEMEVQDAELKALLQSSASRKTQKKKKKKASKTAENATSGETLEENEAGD

[17] = protein IMPDH2 (P12268), Exp Comp, analysis C6, p 0.0078, 8 peptides
[18] = protein DNAJA1 (P31689), Exp Comp, analysis C6, p 0.0625, 5 peptides

## C=CS(=O)(=O)N1C[C@H](C(=O)Nc2ccc(OC(F)(F)F)cc2)C[C@@H](c2ccccc2)C1 [3a]
[1]
  enrich.exp.med: 0.7591
[2]
  enrich.exp.med: 0.6321
[3]; Comp, protein IMPDH2 P12268
  enrich.exp.med: 0.9888
[3]; [17]
  enrich.exp.med.lin: 1.985
  enrich.exp.med.log2: 0.9888
[4]; Comp, protein DNAJA1 P31689
  enrich.exp.med: 1.02
[4]; [18]
  enrich.exp.med.lin: 2.028
  enrich.exp.med.log2: 1.02
[5]
  enrich.exp.med: 0.5876
[6]
  enrich.exp.med: 0.6156
[7]
  enrich.exp.med: 0.6753
[8]
  enrich.exp.med: 0.7492
[9]
  enrich.exp.med: 0.7694
[10]
  enrich.exp.med: 0.7684
[11]
  enrich.exp.med: 0.5823
[12]
  enrich.exp.med: 0.7055
[13]
  enrich.exp.med: 0.7266
[14]
  enrich.exp.med: 0.6324
[15]
  enrich.exp.med: 0.5956
[16]
  enrich.exp.med: 0.7436
